# Test results: patent US20090130070A1, “METHOD OF TREATMENT” (The University of Queensland, priority 2004, published 2009)
# Test system: Human epidermal keratinocytes (HaCaT cells)
# Experiment: "scrape" in vitro wound healing model (wound closure of a scraped confluent monolayer)
# Assay type: cell-based
# Conditions: for wound width, day 1: day 1 (24 hours); for wound width, day 2: day 2 (48 hours)
# Experimental: The “scrape” in vitro wound healing model has been previously presented in the literature (Li, F. et al., 2000, Exp Cell Res., 258(2): 245-253; Firth J. D. et al., 2004, J. Invest. Dermatol., 122(1): 222-231). In this model a scrape across a confluent monolayer of cells is used to simulate a wound and the effect of agents added to serum free media is tested on the rate of closure of the gap.
# Human epidermal keratinocytes (HaCaT cells) were plated at a density of 1×10^5 cells/well into Nunc 6 well plates in Dulbecco's Modified Eagle Medium (DMEM) containing 10% fetal bovine serum (FBS) benzyl penicillin (100 IU/ml), streptomycin […] confluence (2 days) monolayers were “wounded” with a 1 ml pipette tip (0.5 mm width) by scraping the tip across the centre of the well. The wells were then washed 5 times with DMEM. One ml of either DMEM with 10% FBS, DMEM or DMEM with: 3, 6, 12 or 24 mgs/ml bovine fetuin A (Sigma), 6.25, 12.5, 25 or 50 μg/ml peptide TGF peptide antagonist (Corresponding to residues 41-65 of TGFβ-1-3:—Huang S. S. et al., 1997, Journal of Biological Chemistry, 272(43):27155-27159) and 2.1, 4.2, 8.4 and 16.8 mg/ml bovine thyroglobulin was added to each well (2 replicates per plate, 4 plates). These concentrations were calculated to have equivalent antagonistic effect on the binding of TGFβ-1 to its receptor for each of the compounds. All DMEM solutions used contained benzyl penicillin (100 IU/ml), streptomycin ([…]) and fungizone (250 mg/ml). A mark was placed on the base of each well at right angles to the “wound” and the wound was photographed at the intersection of the mark and wound with a Nikon EOS 300 digital camera fitted to a JenaMed (Ziess Jena) inverted microscope (50×). Images were taken at the same positions 24 and 48 hours after addition of the treatment media. Digital images were analysed with Image Pro (Media Cybernetics) image analysis software and an image of a Nikon stage micrometer was used for calibration of length measurements. Results were summarized as the wound width after 24 and 48 hours.
# [1] = 6.25 μg/ml TGF peptide antagonist in DMEM
# [2] = 12.5 μg/ml TGF peptide antagonist in DMEM
# [3] = 25 μg/ml TGF peptide antagonist in DMEM
# [4] = 50 μg/ml TGF peptide antagonist in DMEM
# [5] = 2.1 mg/ml bovine thyroglobulin in DMEM
# [6] = 4.2 mg/ml bovine thyroglobulin in DMEM
# [7] = 8.4 mg/ml bovine thyroglobulin in DMEM
# [8] = 16.8 mg/ml bovine thyroglobulin in DMEM
substance,measurement,setting,value
"TGFB-R inhibitor: peptide TGF peptide antagonist corresponding to residues 41-65 of TGFβ-1-3 (Huang S. S. et al., 1997) (ANFCLGPCPYIWSLDTQYSKVLALY; Transforming growth factor beta-1; UniProt P01137 319-343, looked up, fragment)","wound width, day 0",[1],0.6779
same,"wound width, day 1",[1],0.5473
same,"wound width, day 2",[1],0.4866
same,"wound width, day 0",[2],0.6751
same,"wound width, day 1",[2],0.5515
same,"wound width, day 2",[2],0.4839
same,"wound width, day 0",[3],0.6643
same,"wound width, day 1",[3],0.5341
same,"wound width, day 2",[3],0.4688
same,"wound width, day 0",[4],0.6371
same,"wound width, day 1",[4],0.554
same,"wound width, day 2",[4],0.498
"Thyroglobulin: bovine thyroglobulin, comparator that binds members of the TGF-β superfamily","wound width, day 0",[5],0.6587
same,"wound width, day 1",[5],0.413
same,"wound width, day 2",[5],0.4941
same,"wound width, day 0",[6],0.6428
same,"wound width, day 1",[6],0.5772
same,"wound width, day 2",[6],0.5393
same,"wound width, day 0",[7],0.6669
same,"wound width, day 1",[7],0.5742
same,"wound width, day 2",[7],0.5909
same,"wound width, day 0",[8],0.6152
same,"wound width, day 1",[8],0.5981
same,"wound width, day 2",[8],0.6132
